First: CCOC(=O)C1=Cc2cc(Cl)cc(-c3ccc(Cl)cc3)c2OC1C(F)(F)F (centres undefined)
Second: COC(=O)c1nn(-c2ccc(Cl)cc2Cl)c(-c2ccc(Cl)cc2)c1CBr
The melting point of the first is lower: 114 to 116 °C for the first, 145 °C for the second.

Compared with `CC12CC3CC(C)(C1)CC(C(=O)NCCc1cccs1)(C3)C2`, `CC1(C)Oc2ccc(CO)cc2[C@@H](N2CCCC2=O)[C@@H]1O` (relative stereo) is higher in melting point: 131 to 132 °C for the first, 175 to 178 °C for the second.

Compared with `O=C(O)CCCCC(=O)c1ccc2cc(O)ccc2c1`, `Cc1c(Cl)cccc1S(=O)(=O)n1c(CCCC(=O)O)cc2nc(Cl)ccc21` is lower in melting point: 191 to 193 °C for the first, 127 to 128 °C for the second.

First: COc1ccc(-c2cc3cc(F)c(F)cc3[nH]2)cc1NS(=O)(=O)c1cccc(C#N)c1
Second: Cc1ccc(-c2nc(C(F)(F)F)nn2-c2ccc(S(N)(=O)=O)cc2)cc1
The melting point of the first is lower: 239 to 242 °C for the first, 245 to 247 °C for the second.

First: Cc1cncc(-c2ccc3c(=O)c(C(=O)O)cn(C4CC4)c3c2C)c1
Second: Cc1ccccc1-c1c(C(=O)O)c(=O)n(C)c2ccc(Cl)cc12
The melting point of the first is higher: 232 °C for the first, 202 to 203 °C for the second.

Compared with `CC(C)OC(=O)c1ccccc1SNc1ccc(OC(F)(F)F)cc1`, `COC(=O)c1ccccc1Oc1ccc(C(F)(F)F)cc1[N+](=O)[O-]` is lower in melting point: 120 to 121 °C for the first, 69 to 70 °C for the second.

First: Cc1noc(NS(=O)(=O)c2ccc(Cl)c(Cl)c2Cl)c1Br
Second: Cc1nc2c(OCc3c(Cl)ccc(N(C)C(=O)CNC=O)c3Cl)cccn2c1Br
The melting point of the first is lower: 110 to 113 °C for the first, 211 to 212 °C for the second.

Compared with `O=C(NCc1ccc(F)cc1)c1ccnc(N2CCN(Cc3ccc(F)cc3)C2=O)c1`, `O=C(O)Cc1cn(Cc2ccc(OCc3ccccc3)cc2)nc1-c1ccc(F)cc1` is higher in melting point: 173 to 175 °C for the first, 194 to 195 °C for the second.

Compared with `CCc1ccc(O)c(C#N)c1`, `CCOC(=O)c1nnc2ccc(C(C)=O)cc2c1O` is higher in melting point: 95 to 98 °C for the first, 250 to 252 °C for the second.

Compared with `CNc1cc(Cc2c(-c3ccc(OCCN4CCCC4)cc3)sc3cc(O)ccc23)ccc1CN1CCCC1`, `CC(C(=O)O)(c1ccc(N2CCCC2)cc1)c1ccc(N2CCCC2)cc1` is higher in melting point: 99 to 102 °C for the first, 174 to 176 °C for the second.

First: CC1(C)CCC(C)(C)c2cc(C(O)CNc3ccc(C(=O)O)c(O)c3)ccc21 (centres undefined)
Second: CCOC(=O)c1ccc(-c2ccc(-c3ccc(OC)cc3)c(-c3ccc4c(c3)C(C)(C)CCC4(C)C)c2)cc1
The melting point of the first is higher: 165 to 166 °C for the first, 112 to 115 °C for the second.

First: CCc1c2c(nn1C)c(N)nc1ccccc12
Second: BrCc1ccc2ccccc2c1CBr
The melting point of the first is higher: 257 to 259 °C for the first, 149 to 150 °C for the second.

First: CCCCCCCC[C@@H](O)C(=O)Nc1c(SC)ccc2ncccc12
Second: CCCCCCC#CC(O)C1=Nc2ccc(F)cc2C(=O)C1C (centres undefined)
The melting point of the first is lower: 119 to 120 °C for the first, 153 to 154 °C for the second.

First: CC=CCN1CCNC1=C[N+](=O)[O-]
Second: NCCC(O)C(C(=O)O)N1CCC1=O (centres undefined)
The melting point of the first is lower: 82 to 85 °C for the first, 152 to 154 °C for the second.

First: CC(C)(C)CC(=O)N[C@H]1CC[C@H](CCN2CCN(c3nccc4c3OCC4)CC2)CC1
Second: CCOC(=O)N1Cc2sc3ncn(CCN4CCN(c5ccccc5OC)CC4)c(=O)c3c2C1
The melting point of the first is higher: 193 °C for the first, 153 to 155 °C for the second.

First: COC(=O)c1cccc2nc(SCCN3CCN(CCNC(=O)Nc4c(C(C)C)cccc4C(C)C)CC3)oc12
Second: CC(C)c1cccc(C(C)C)c1NC(=O)CS(=O)(=O)CCN1CCN(c2ccccc2)CC1
The melting point of the first is lower: 186 to 188 °C for the first, 197 to 200 °C for the second.

Compared with `CNC(=O)C(=NO)c1ccccc1Oc1ccccc1`, `O=C(O)c1ccccc1NCc1ccncc1` is higher in melting point: 183 to 184 °C for the first, 208 °C for the second.

First: CC(C)(C)c1ccc(-c2cc(=O)cc(N3CCOCC3)s2)cc1
Second: COc1ccc(-c2csc(C=CC(=O)O)c2)cc1C(C)(C)C
The melting point of the first is lower: 172 to 173 °C for the first, 206 to 207 °C for the second.

Compared with `O=S(=O)(c1ccccc1)c1ccc(Br)cc1`, `Cc1ccc(S(=O)(=O)CC2COc3ccccc3O2)cc1` (single isomer, unassigned; (+)) is lower in melting point: 95 to 99 °C for the first, 60 °C for the second.

First: CCOC(=O)C1=C(COCc2nccn2C)NC(C)=C(C(=O)OC)C1c1ccccc1Cl (centres undefined)
Second: CCOC(=O)C1=C(C)NC(c2ncc[nH]2)=NC1c1ccc(F)cc1Cl (centres undefined)
The melting point of the first is lower: 137 to 138 °C for the first, 157 to 162 °C for the second.

First: COC(=O)[C@H](Cc1cccc2ccccc12)NC(=O)[C@H](CC(=O)OC(C)(C)C)NC(=O)c1cccc(N)c1
Second: CCC(COC)NC(=O)C(C)(C)c1ccc(-c2ccccc2)c(F)c1 (centres undefined)
The melting point of the first is lower: 70 to 72 °C for the first, 81 to 82 °C for the second.

First: CCOC(=O)c1cn2cccc(C(=O)OCC)c2n1
Second: CCOC(=O)C(=O)CC(=O)c1cccc(Cl)c1Cl
The melting point of the first is higher: 97 °C for the first, 57 to 58 °C for the second.

First: CCCCCCCCCCCCCCCc1c([N+](=O)[O-])cc([N+](=O)[O-])c(O)c1[N+](=O)[O-]
Second: CCCCCCCCCCCCCCCc1c([N+](=O)[O-])cc([N+](=O)[O-])c(O)c1C(=O)O
The melting point of the first is lower: 53 to 56 °C for the first, 78 to 82 °C for the second.

First: O=[N+]([O-])c1ccc2c(c1)Sc1cc(OC/C=C/I)ccc1N2
Second: OC1CCN(Cc2nc(-c3ccc4c(c3)Nc3ccccc3S4)cs2)CC1
The melting point of the first is higher: > 250 °C for the first, 205 to 207 °C for the second.

First: CC1(C)CC(=O)c2c(N3CCC3)sc(-c3cc[nH]n3)c2C1
Second: CC1(C)CCc2c(ccc3c2C(=O)C(Br)=C(O)C3=O)O1
The melting point of the first is higher: 263 to 265 °C for the first, 213 to 216 °C for the second.

Compared with `CC(C(=O)Nc1ccc2[nH]c(=O)oc2c1)N1CCC(Cc2ccccc2)CC1` (centres undefined), `CS(=O)(=O)N1CCN(Cc2ccccc2)CC1` is lower in melting point: 116 to 118 °C for the first, 115 to 116 °C for the second.

Compared with `Nc1c([N+](=O)[O-])cc(Br)c2c1CN(Cc1ccccc1)CC2`, `O=C(c1c(Cl)cccc1[N+](=O)[O-])n1ccnc1-c1ccccc1` is lower in melting point: 150 to 152 °C for the first, 147 to 148 °C for the second.

First: Cc1ncnc(-c2cc(O)c(Cl)cc2F)c1C
Second: Cn1c(C(F)(F)F)cc(=O)n(-c2c(F)cc(Cl)c3cc(C=O)oc23)c1=O
The melting point of the first is lower: 176 to 178 °C for the first, 180 to 183 °C for the second.

First: CC(C)(C)OC(=O)N1C(=O)[C@@H](O[Si](C)(C)C)[C@H]1c1ccccc1
Second: CCCOC(=O)c1cccc2c1S[C@@H](c1ccc(OC)cc1)[C@@H](OC(C)=O)C(=O)N2CCN(C)C (racemic)
The melting point of the first is lower: 85 to 88 °C for the first, 107 to 109 °C for the second.

First: C=C1N(C(C)(C)C)C(=O)OC12CCN(C(=O)CC)CC2
Second: CC(=O)Oc1c(Cl)c(C(C)(C)C)oc(=O)c1-c1c(C)cc(C)cc1C
The melting point of the first is lower: 104 to 105 °C for the first, 116 to 118 °C for the second.

First: O=C(NC(=O)N1CCCCC1)c1cc(Cl)nc(Cl)c1
Second: CNS(=O)(=O)c1cc2c(cc1CC(=O)O)CCCC2
The melting point of the first is higher: 183 to 185 °C for the first, 153 to 155 °C for the second.

First: CSC1=NC(=O)C(=C(C)c2cc(C(C)(C)C)c(O)c(C(C)(C)C)c2)S1
Second: Cc1cc2c(cc1C1=NNC(=O)SC1C)C(C)(C)C(=O)N2 (centres undefined)
The melting point of the first is lower: 206 to 209 °C for the first, 240 °C for the second.

First: COC(=O)C(=O)c1ccc(OCCOc2ccc(Cl)cc2)cc1
Second: Cc1c(Cc2cc(=O)n(-c3cccc(C(F)(F)F)c3)[nH]2)c2cc(Cl)ccc2n1C(=O)c1ccc(Cl)cc1
The melting point of the first is higher: 103 to 105 °C for the first, 81 to 83 °C for the second.

Compared with `O=C1CN(c2ccccc2)C(=O)N1S(=O)(=O)c1ccc(Oc2ccccc2)cc1`, `CN1C(=O)C(NC(=O)Nc2cccc3ccccc23)N=C(c2ccccc2)c2ccccc21` (centres undefined) is higher in melting point: 157 to 158 °C for the first, 234 to 235 °C for the second.

First: CCOc1ccc2c(c1)C(c1ccccc1Cl)(N(C)C)C(=O)N2S(=O)(=O)c1ccc(NC(=O)N(CC)CC)cc1OC (centres undefined)
Second: CCON=C(CC)C1=C(O)CC(c2ccc(NC(=O)c3ccccc3C)cc2)CC1=O (centres undefined)
The melting point of the first is higher: 212 to 214 °C for the first, 139 to 140 °C for the second.

First: O=C(NOc1ncc(C(F)(F)F)cc1Cl)c1cccc2ccccc12
Second: COc1ccc(CNc2nnc(OCCCO)c3ccc(Cl)cc23)cc1Cl
The melting point of the first is higher: 198 to 199 °C for the first, 124 to 126 °C for the second.

First: COc1ccc2nc(NC(=O)C(CC3CCCC3)c3ccc(S(=O)(=O)Nc4cccnc4)cc3)sc2n1 (centres undefined)
Second: CCCC(=O)NS(=O)(=O)c1ccc(NC(=O)N2CCc3c(OC)ccc(N4CCN(C)CC4)c3C2)cc1
The melting point of the first is lower: 125 to 127 °C for the first, 185 to 190 °C for the second.

Compared with `CCCCC(=O)N(CCCOCc1ccccc1)Cc1ccc(-c2ccccc2-c2nnn[nH]2)cc1`, `CCCCCCCCCCCCCCCCCCOc1cc(O)cc(C(=O)OCc2ccccc2)c1` is lower in melting point: 112 to 115 °C for the first, 72 to 75 °C for the second.

First: Cc1nnc2ccc(-c3cccc(F)c3)nn12
Second: O=C(O)Cc1nc(-c2ccc(F)cc2)oc1-c1cccs1
The melting point of the first is lower: 184 to 186 °C for the first, 208 to 209 °C for the second.

Compared with `CNCC1=C(C#N)C(c2cccc(C#N)c2Br)c2c[nH]nc2N1` (centres undefined), `CNc1cccc(OC)c1[N+](=O)[O-]` is lower in melting point: 258 °C for the first, 58 to 59 °C for the second.

Compared with `Cc1csc2nc(Sc3ccccc3NC(=O)N[C@@H](Cc3ccc(NC(=O)c4c(Cl)cncc4Cl)cc3)C(=O)O)cnc12`, `CC(=O)Nc1ccc(/C=C/C(=O)NCC(=O)N(C)c2ccc(Cl)c(CO)c2Cl)cn1` is higher in melting point: 193 °C for the first, 207 to 209 °C for the second.

Compared with `CC1(C)OC(=O)C2=C(CCCCCC2)O1`, `CCC(=O)Oc1ccc2c(c1)CCC1C2CCC2(C)C1CC(O)C2NC` (centres undefined) is higher in melting point: 73.5 to 74.5 °C for the first, 182 to 185 °C for the second.

First: CCCc1cc2c(=O)n3cc(C(=O)O)ccc3nc2s1
Second: CCCc1c(O)c(C(C)=O)cc(Cl)c1OCCCOc1c(C(C)=O)ccc(OCC(=O)O)c1CCC
The melting point of the first is higher: 250 to 254 °C for the first, 119 to 121 °C for the second.

Compared with `CCOC(=O)C=Cc1ccc(F)cc1F`, `O=C(O)c1ccc(OCCCCCCC2CC2)c(F)c1F` is higher in melting point: 40 to 40.5 °C for the first, 100 to 108 °C for the second.

First: Sc1nnc(-c2ccc3c(c2)CCO3)o1
Second: S=c1oc2ccccc2o1
The melting point of the first is higher: 219 to 221 °C for the first, 151 to 153 °C for the second.

Compared with `Cc1cc([N+](=O)[O-])c(CC2NC(=O)NC2=O)cc1Cl` (centres undefined), `Cc1ccc(Cl)c2[nH]c(=O)oc(=O)c12` is higher in melting point: 211 to 214 °C for the first, 248 to 250 °C for the second.

First: CNc1ccccc1C(=O)Cc1nnn[nH]1
Second: O=[N+]([O-])c1cc(C(F)(F)F)ccc1NCCO
The melting point of the first is higher: 199 to 201 °C for the first, 74.9 °C for the second.

Compared with `CC(C)CCNC(=NC#N)Nc1cccnc1`, `CC1(C(O)=C(Cc2ccc(Cl)cc2Cl)n2cncn2)COCOC1` is higher in melting point: 136 °C for the first, 190 to 192 °C for the second.

Compared with `Fc1ccc(Nc2ncnc3cnc(N4CCN(c5ccncc5)CC4)nc23)cc1Cl`, `O=C1C(O)=C(C2CCC(c3ccc(Cl)cc3)CC2)C(=O)c2ccccc21` (centres undefined) is lower in melting point: 248 to 250 °C for the first, 216 to 219 °C for the second.

In the case of `CN1CCC(Oc2ccc3ccccc3n2)(c2ccccc2)CC1`, the melting point was 80 to 81 °C.
